Assay results from US8916702B2 (priority 2012, dated 2014).

These compounds were tested on HCV pseudoparticles (genotype 1a HCV E1 and E2 envelope, H77C isolate) (assay: microbe, parasite or virus in culture). Conditions: Hepatitis C virus, Huh-7, 48 h, HCV pseudoparticle infection of Huh7 cells, luciferase 2 days after infection; average of duplicates.
Format: cell-based

SMILES	EC50 [nM]
COC(=O)[C@H](CNC(=O)C(=O)NCc1cc(F)ccc1F)NC(=O)c1ccc(Nc2nc(NC3(c4ccc(Cl)cc4)CC3)nc(OCC(F)(F)F)n2)cc1 [Compound 1154]	1.07
COC(=O)[C@H](CCNC(=O)C(=O)NCCc1ccc(F)cc1)NC(=O)c1ccc(Nc2nc(NC3(c4ccc(Cl)cc4)CC3)nc(OCC(F)(F)F)n2)cc1 [Compound 1315]	1.03
COC(=O)[C@H](CNC(=O)C(=O)NCc1ccc(F)cc1)NC(=O)c1ccc(Nc2nc(NC3(c4ccc(Cl)cc4)CC3)nc(OCC(F)(F)F)n2)cc1 [Compound 1133]	1.4

Same assay, conditions: Hepatitis C virus, Huh-7, 48 h, HCV pseudoparticles (genotype 1a, H77C) in Huh7 cells; average of duplicate; luciferase 2 days after infection

SMILES	EC50 [nM]
CC(C)(CNC(=O)C(=O)Nc1ccnn1-c1ccccc1)CNC(=O)c1ccc(Nc2nc(NC3(c4ccc(Cl)cc4)CC3)nc(OCC(F)(F)F)n2)cc1 [Compound 3029]	0.071

Same assay, conditions: Hepatitis C virus, Huh-7, 48 h, HCV pseudoparticles, Huh7 cells, luciferase 2 days after infection; average of duplicates

SMILES	EC50 [nM]
COC(=O)[C@H](CNC(=O)C(=O)Nc1ccc(N2CCOCC2)nc1)NC(=O)c1ccc(Nc2nc(NC3(c4ccc(Cl)cc4)CC3)nc(OCC(F)(F)F)n2)cc1 [Compound 3703]	1.33

Same assay, conditions: Hepatitis C virus, Huh-7, 48 h, read-out: Activity (EC50 class), HCV pseudoparticle infection of Huh7 cells, luciferase 2 days after infection; EC50 expressed as class A/B

SMILES	EC50 [nM]
O=C(NCC[C@H](NC(=O)c1ccc(Nc2nc(NC3(c4ccc(Cl)cc4)CC3)nc(OCC(F)(F)F)n2)cc1)C(=O)O)C(=O)NCc1cccc(F)c1F [Compound 1177]	0.01 to 10
CC(C)(CNC(=O)C(=O)Nc1ccc(F)cc1F)CNC(=O)c1ccc(Nc2nc(NC3(c4ccc(Cl)cc4)CC3)nc(OCC(F)(F)F)n2)cc1 [Compound 1539]	0.01 to 10
COc1ccc(CNC(=O)C(=O)NCC[C@H](NC(=O)c2ccc(Nc3nc(NC4(c5ccc(Cl)cc5)CC4)nc(OCC(F)(F)F)n3)cc2)C(=O)O)c(OC)c1 [Compound 1194]	0.01 to 10
Cc1ccc(NC(=O)C(=O)NCC2(CNC(=O)c3ccc(Nc4nc(NC5(c6ccc(Cl)cc6)CC5)nc(OCC(F)(F)F)n4)cc3)CC2)cc1 [Compound 1600]	0.01 to 10
O=C(NCC[C@H](NC(=O)c1ccc(Nc2nc(NC3(c4ccc(Cl)cc4)CC3)nc(OCC(F)(F)F)n2)cc1)C(=O)O)C(=O)NCC1CC1 [Compound 1206]	0.01 to 10
Cc1ccc(NC(=O)C(=O)NCC(C)(C)CNC(=O)c2ccc(Nc3nc(NC4(c5ccc(Cl)cc5)CC4)nc(OCC(F)(F)F)n3)cc2)cc1 [Compound 1536]	0.01 to 10
COC(=O)[C@H](CNC(=O)C(=O)N[C@H]1C[C@H]2C3C2[C@]31C)NC(=O)c1ccc(Nc2nc(NC3(c4ccc(Cl)cc4)CC3)nc(OCC(F)(F)F)n2)cc1 (some centres unmarked) [Compound 1054]	0.01 to 10
COC(=O)[C@H](CNC(=O)C(=O)NCc1cc(F)ccc1F)NC(=O)c1ccc(Nc2nc(NC3(c4ccc(Cl)cc4)CC3)nc(OCC(F)(F)F)n2)cc1 [Compound 1154]	0.01 to 10
CCC(CC)NC(=O)C(=O)NC[C@H](NC(=O)c1ccc(Nc2nc(NC3(c4ccc(Cl)cc4)CC3)nc(OCC(F)(F)F)n2)cc1)C(=O)O [Compound 1091]	0.01 to 10
CC(C)(CNC(=O)C(=O)Nc1cc(F)c(F)c(F)c1)CNC(=O)c1ccc(Nc2nc(NC3(c4ccc(Cl)cc4)CC3)nc(OCC(F)(F)F)n2)cc1 [Compound 1558]	0.01 to 10
CC(C)(CNC(=O)C(=O)Nc1cccc(Cl)c1)CNC(=O)c1ccc(Nc2nc(NC3(c4ccc(Cl)cc4)CC3)nc(OCC(F)(F)F)n2)cc1 [Compound 1561]	0.01 to 10
COC(=O)[C@H](CCNC(=O)C(=O)NCCc1ccc(F)cc1)NC(=O)c1ccc(Nc2nc(NC3(c4ccc(Cl)cc4)CC3)nc(OCC(F)(F)F)n2)cc1 [Compound 1315]	0.01 to 10
CC(C)(CNC(=O)C(=O)Nc1ccc(C2CCCCC2)cc1)CNC(=O)c1ccc(Nc2nc(NC3(c4ccc(Cl)cc4)CC3)nc(OCC(F)(F)F)n2)cc1 [Compound 1584]	0.01 to 10
COC(=O)[C@H](CCNC(=O)C(=O)Nc1ccc(O)nc1)NC(=O)c1ccc(Nc2nc(NC3(c4ccc(Cl)cc4)CC3)nc(OCC(F)(F)F)n2)cc1 [Compound 1520]	0.01 to 10
COC(=O)[C@H](CNC(=O)C(=O)NCc1ccc(F)cc1)NC(=O)c1ccc(Nc2nc(NC3(c4ccc(Cl)cc4)CC3)nc(OCC(F)(F)F)n2)cc1 [Compound 1133]	0.01 to 10
CC(C)OC(=O)c1ccc(-c2ccc(NC(=O)C(=O)NCC(C)(C)CNC(=O)c3ccc(Nc4nc(NC5(c6ccc(Cl)cc6)CC5)nc(OCC(F)(F)F)n4)cc3)cc2)cc1 [Compound 1488]	0.01 to 10

Same assay, conditions: Hepatitis C virus, Huh-7, 48 h, read-out: Activity (EC50 class), HCV pseudoparticles, Huh7 cells, luciferase 2 days after infection; average of duplicates

SMILES	EC50 [nM]
O=C(NCC[C@H](NC(=O)c1ccc(Nc2nc(NC3(c4ccc(Cl)cc4)CC3)nc(OCC(F)(F)F)n2)cc1)C(=O)O)C(=O)Nc1ccc(O)nc1 [Compound 3646]	0.01 to 10
O=C(NCC[C@H](NC(=O)c1ccc(Nc2nc(NC3(c4ccc(Cl)cc4)CC3)nc(OCC(F)(F)F)n2)cc1)C(=O)O)C(=O)Nc1cccc(-c2c[nH]cn2)c1 [Compound 3656]	0.01 to 10
CNS(=O)(=O)c1cccc(NC(=O)C(=O)NC[C@H](NC(=O)c2ccc(Nc3nc(NC4(c5ccc(Cl)cc5)CC4)nc(OCC(F)(F)F)n3)cc2)C(=O)OC)c1 [Compound 3727]	0.01 to 10
O=C(NCC[C@H](NC(=O)c1ccc(Nc2nc(NC3(c4ccc(Cl)cc4)CC3)nc(OCC(F)(F)F)n2)cc1)C(=O)O)C(=O)Nc1ccc(Cl)nc1 [Compound 3611]	0.01 to 10
CC(C)(CNC(=O)C(=O)Nc1nc2c(F)cc(F)cc2s1)CNC(=O)c1ccc(Nc2nc(NC3(c4ccc(Cl)cc4)CC3)nc(OCC(F)(F)F)n2)cc1 [Compound 3809]	0.01 to 10
COC(=O)[C@H](CNC(=O)C(=O)Nc1cccc(C(=O)c2ccccc2)c1)NC(=O)c1ccc(Nc2nc(NC3(c4ccc(Cl)cc4)CC3)nc(OCC(F)(F)F)n2)cc1 [Compound 3692]	0.01 to 10
CC(C)(CNC(=O)C(=O)Nc1ccc(Oc2ccccc2)cc1)CNC(=O)c1ccc(Nc2nc(NC3(c4ccc(Cl)cc4)CC3)nc(OCC(F)(F)F)n2)cc1 [Compound 3672]	0.01 to 10
COC(=O)[C@H](CNC(=O)C(=O)Nc1ccc(N2CCOCC2)nc1)NC(=O)c1ccc(Nc2nc(NC3(c4ccc(Cl)cc4)CC3)nc(OCC(F)(F)F)n2)cc1 [Compound 3703]	0.01 to 10
COC(=O)[C@H](CNC(=O)C(=O)Nc1cccc(-c2cnco2)c1)NC(=O)c1ccc(Nc2nc(NC3(c4ccc(Cl)cc4)CC3)nc(OCC(F)(F)F)n2)cc1 [Compound 3696]	0.01 to 10
O=C(NCC[C@H](NC(=O)c1ccc(Nc2nc(NC3(c4ccc(Cl)cc4)CC3)nc(OCC(F)(F)F)n2)cc1)C(=O)O)C(=O)Nc1cccc(CCc2ccccn2)c1 [Compound 3638]	0.01 to 10
COC(=O)[C@H](CCNC(=O)C(=O)Nc1cccc(-n2cnnc2)c1)NC(=O)c1ccc(Nc2nc(NC3(c4ccc(Cl)cc4)CC3)nc(OCC(F)(F)F)n2)cc1 [Compound 3605]	0.01 to 10

Same assay, conditions: Hepatitis C virus, Huh-7, read-out: Activity (EC50 class), HCV pseudoparticles (genotype 1a, H77C) in Huh7 cells; EC50 expressed as class A/B

SMILES	EC50 [nM]
CC(C)(CNC(=O)C(=O)Nc1ccc(OC(F)(F)F)cc1)CNC(=O)c1ccc(Nc2nc(NC3(c4ccc(Cl)cc4)CC3)nc(OCC(F)(F)F)n2)cc1 [Compound 3145]	0.01 to 10
COc1ccc(C2(Nc3nc(Nc4ccc(C(=O)NCC(C)(C)CNC(=O)C(N)=O)cc4)nc(OCC(F)(F)F)n3)CC2)cc1C(F)(F)F [Compound 3351]	0.01 to 10
O=C(NC/C(=N/C(=O)c1ccc(Nc2nc(NC3(c4ccc(Cl)cc4)CC3)nc(OCC(F)(F)F)n2)cc1)C(=O)O)C(=O)Nc1ccc(N2CCCC2=O)cc1 [Compound 3165]	0.01 to 10
Cc1cc(NC(=O)C(=O)NC(C)(C)CNC(=O)c2ccc(Nc3nc(NC4(c5ccc(Cl)cc5)CC4)nc(OCC(F)(F)F)n3)cc2)no1 [Compound 3422]	0.01 to 10
COC(=O)[C@@H](CCNC(=O)C(=O)Nc1ccc(Oc2ccc(Cl)cc2Cl)nc1)NC(=O)c1ccc(Nc2nc(NC3(c4ccc(Cl)cc4)CC3)nc(OCC(F)(F)F)n2)cc1 [Compound 3580]	10 to 1000
COc1cc(NC(=O)C(=O)NCC(C)(C)CNC(=O)c2ccc(Nc3nc(NC4(c5ccc(Cl)cc5)CC4)nc(OCC(F)(F)F)n3)cc2)ccn1 [Compound 3251]	0.01 to 10
CC(C)(CNC(=O)C(=O)Nc1ccnn1-c1ccccc1)CNC(=O)c1ccc(Nc2nc(NC3(c4ccc(Cl)cc4)CC3)nc(OCC(F)(F)F)n2)cc1 [Compound 3029]	0.01 to 10
CC(=O)c1ccccc1NC(=O)C(=O)NCC(C)(C)CNC(=O)c1ccc(Nc2nc(NC3(c4ccc(Cl)cc4)CC3)nc(OCC(F)(F)F)n2)cc1 [Compound 3377]	0.01 to 10
COC(=O)[C@H](CNC(=O)C(=O)Nc1ccc(Oc2cccnc2)cc1)NC(=O)c1ccc(Nc2nc(NC3(c4ccc(Cl)cc4)CC3)nc(OCC(F)(F)F)n2)cc1 [Compound 3207]	0.01 to 10
COC(=O)[C@H](CNC(=O)C(=O)Nc1ccc(-n2ccnc2)cc1)NC(=O)c1ccc(Nc2nc(NC3(c4ccc(Cl)cc4)CC3)nc(OCC(F)(F)F)n2)cc1 [Compound 3183]	0.01 to 10
COC(=O)[C@H](CNC(=O)C(=O)Nc1ccc(Oc2ccc(F)cc2)cc1)NC(=O)c1ccc(Nc2nc(NC3(c4ccc(Cl)cc4)CC3)nc(OCC(F)(F)F)n2)cc1 [Compound 3184]	0.01 to 10
CC(C)(CNC(=O)C(=O)NCc1cccc(F)c1)CNC(=O)c1ccc(Nc2nc(NC3(c4ccc(Cl)cc4)CC3)nc(OCC(F)(F)F)n2)cc1 [Compound 3004]	0.01 to 10
COC(=O)[C@H](CNC(=O)C(=O)Nc1ccc(-c2ccc(C)cc2)cc1)NC(=O)c1ccc(Nc2nc(NC3(c4ccc(Cl)cc4)CC3)nc(OCC(F)(F)F)n2)cc1 [Compound 3188]	0.01 to 10
CC(CNC(=O)C(=O)Nc1cccc(F)c1)CNC(=O)c1ccc(Nc2nc(NC3(c4ccc(Cl)cc4)CC3)nc(OCC(F)(F)F)n2)cc1 (centres unmarked) [Compound 3348]	0.01 to 10
CC(C)(CNC(=O)C(=O)NCc1ccc(Cl)cc1)CNC(=O)c1ccc(Nc2nc(NC3(c4ccc(Cl)cc4)CC3)nc(OCC(F)(F)F)n2)cc1 [Compound 3009]	0.01 to 10
O=C(NCC(O)CNC(=O)c1ccc(Nc2nc(NC3(c4ccc(Cl)cc4)CC3)nc(OCC(F)(F)F)n2)cc1)C(=O)N1CCCCC1 (centres unmarked) [Compound 3465]	0.01 to 10
COc1ccc(NC(=O)C(=O)NCC(C)(C)CNC(=O)c2ccc(Nc3nc(NC4(c5ccc(Cl)cc5)CC4)nc(OCC(F)(F)F)n3)cc2)c(OC)n1 [Compound 3077]	0.01 to 10
CC(C)(CNC(=O)C(=O)Nc1c(F)cc(F)cc1F)CNC(=O)c1ccc(Nc2nc(NC3(c4ccc(Cl)cc4)CC3)nc(OCC(F)(F)F)n2)cc1 [Compound 3416]	0.01 to 10
CC(C)(CNC(=O)C(=O)Nc1ccc2ncccc2c1)CNC(=O)c1ccc(Nc2nc(NC3(c4ccc(Cl)cc4)CC3)nc(OCC(F)(F)F)n2)cc1 [Compound 3038]	0.01 to 10
CC(C)(CNC(=O)C(=O)Nc1cccnc1)CNC(=O)c1ccc(Nc2nc(NC3(c4ccc(Cl)cc4)CC3)nc(OCC(F)(F)F)n2)cc1 [Compound 3245]	0.01 to 10
CCOc1ccc(NC(=O)C(=O)NCC[C@H](NC(=O)c2ccc(Nc3nc(NC4(c5ccc(Cl)cc5)CC4)nc(OCC(F)(F)F)n3)cc2)C(=O)O)cc1 [Compound 3548]	0.01 to 10
